We go through 29 compounds from patent US20100063065A1 (Inpharmatica Limited, priority 2005, published 2010).

Structures are written as SMILES.

The target of one experiment is T1, PPARδ (Homo sapiens, UniProt Q03181).
T1 construct: fused to amino acids 147-441 of PPARδ downstream of CMV promoter; expressed in transfected cells; host or cells: HEK293 cells, transiently transfected with pFACMV-PPARδ using Fugene
T1 sequence (Q03181 147-441): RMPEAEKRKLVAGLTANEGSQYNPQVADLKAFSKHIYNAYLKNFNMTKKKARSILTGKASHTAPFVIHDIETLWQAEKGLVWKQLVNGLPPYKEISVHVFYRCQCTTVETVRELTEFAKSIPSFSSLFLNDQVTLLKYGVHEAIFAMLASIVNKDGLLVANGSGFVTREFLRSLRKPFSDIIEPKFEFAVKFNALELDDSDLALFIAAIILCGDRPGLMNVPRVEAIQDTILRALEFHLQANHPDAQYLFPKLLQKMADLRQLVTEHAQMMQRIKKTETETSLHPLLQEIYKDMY
Description: Transactivation assay (PPARδ GAL4 assay) in transiently transfected HEK293 cells. The settings on record: luciferase reporter, Table 1. Type of experiment: cell-based. As for the experimental part: Compounds were screened for their functional potency in transiently transfected HEK293 cells for their ability to activate PPAR subtypes. Cells were cultured in DMEM (Invitrogen) supplemented with 10% foetal calf serum, glutamine, penicillin and streptomycin and plated at 10 000 cells/well of a 96-well solid white plate and incubated at 37° C./5% CO2 for 24 hours. Media was removed and the cells washed with PBS. Cells were then transiently transfected using Fugene (Roche) with 50 ng pFACMV-PPARδ (plasmid encoding amino acids 1-147 of the GAL4 DNA binding domain, fused to amino acids 147-441 of PPARδ downstream of CMV promoter) and 250 ng pFR-Luc (reporter plasmid containing 5×GAL4 response elements upstream of a luciferase gene), using a ratio of 3:1 Fugene:DNA. 100 μl of this transfection mixture in DMEM (without foetal calf serum) was added to each well, and the incubation continued for a further 24 hours. The cells are then again washed with PBS prior to the addition of 100 μl reduced serum medium (OptiMEM; Invitrogen). Compounds were added (10 μl in 2% DMSO in OptiMEM) to achieve final concentrations between 0-30 μM. The cells were then returned to the incubator for a further 24 hours. 100 μl of luciferase reagent (Bright Glo, Promega) was added directly to each well, and the luminescence determined using a suitable luminometer.
To measure the selectivity of compounds, their ability to transactivate GAL4 fusions of PPARα LBD and PPARγ LBD was determined. The activity of compounds was expressed as a percentage relative to control compounds: PPARγ rosiglitazone (BRL 49653), PPARδ GW501516 (11) or PPARα KCL1999000269 (12). EC50 values were calculated by fitting of the data to a sigmoidal dose response curve.
On to `CCc1cc(C(=O)c2ccc(Cl)cc2)c(NC(=O)CSCC(=O)O)s1` [Example 23, {[3-(4-Chloro-benzoyl)-5-ethyl-thiophen-2-ylcarbamoyl]-methylsulfanyl}-acetic acid], for which the EC50 – broadly, the concentration needed to bring the measured effect to its halfway point – fell in the range of 100 to 1000 nM. The same measure, in the same setting: to `CCc1cc(C(=O)c2ccc(OC)cc2)c(NC(=O)CCCSCC(=O)O)s1` [Example 71, {3-[5-Ethyl-3-(4-methoxy-benzoyl)-thiophen-2-ylcarbamoyl]-propylsulfanyl}-acetic acid] belongs 100 to 1000 nM; to `CCc1cc(C(=O)c2ccc(Cl)cc2)c(NC(=O)CC(C)(C)CC(=O)O)s1` [Example 25, 4-[3-(4-Chloro-benzoyl)-5-ethyl-thiophen-2-ylcarbamoyl]-3,3-dimethyl-butyric acid], 1000 to 30000 nM; to `CCc1cc(C(=O)c2ccc3ccccc3c2)c(NC(=O)CSCC(=O)O)s1` [Example 47, {[5-Ethyl-3-(naphthalene-2-carbonyl)-thiophen-2-ylcarbamoyl]-methylsulfanyl}-acetic acid], 100 to 1000 nM.

For the compound `CCc1cc(C(=O)c2ccc(OC(F)(F)F)cc2)c(NC(=O)CSc2ccc(OCC(=O)O)c(C)c2)s1` [Example 94, (4-{[5-Ethyl-3-(4-trifluoromethoxy-benzoyl)-thiophen-2-ylcarbamoyl]-methylsulfanyl}-2-methyl-phenoxy)-acetic acid], the 50% effective concentration (EC50) is 100 to 1000 nM. Still for that read-out and setting: to `CCc1cc(C(=O)c2ccc(Cl)cc2)c(NC(=O)c2ccc(OCC(=O)O)cc2)s1` [Example 97, {4-[3-(4-Chloro-benzoyl)-5-ethyl-thiophen-2-ylcarbamoyl]-phenoxy}-acetic acid] belongs 100 to 1000 nM; to `COc1ccc(C(=O)c2cc(C)sc2NC(=O)CSCC(=O)O)cc1` [Example 61, {[3-(4-Methoxy-benzoyl)-5-methyl-thiophen-2-ylcarbamoyl]-methylsulfanyl}-acetic acid], 1000 to 30000 nM. On the same count and under the same terms, with `CCc1cc(C(=O)c2ccc(C)c(C)c2)c(NC(=O)CSC(C)(C)C(=O)O)s1` [Example 54, 2-{[3-(3,4-Dimethyl-benzoyl)-5-ethyl-thiophen-2-ylcarbamoyl]-methylsulfanyl}-2-methyl-propionic acid] the figure was 100 to 1000 nM. As for `O=C(O)CSCC(=O)Nc1sc(Cl)cc1C(=O)c1ccc(OC(F)(F)F)cc1` [Example 67, {[5-Chloro-3-(4-trifluoromethoxy-benzoyl)-thiophen-2-ylcarbamoyl]-methylsulfanyl}-acetic acid], the EC50 is less than 100 nM. On to `CCc1cc(C(=O)c2ccc(OC(F)(F)F)cc2)c(NC(=O)c2cccc(SCC(=O)O)c2)s1` [Example 98, {3-[5-Ethyl-3-(4-trifluoromethoxy-benzoyl)-thiophen-2-ylcarbamoyl]-phenylsulfanyl}-acetic acid], for which the EC50 lay within 100 to 1000 nM. Same read-out and setting: with `CCc1cc(C(=O)c2ccc(-c3ccc(F)cc3)cc2)c(NC(=O)CNC(C)(C)C(=O)O)s1` [Example 83, 2-({[5-Ethyl-3-(4′-fluoro-biphenyl-4-carbonyl)-thiophen-2-ylcarbamoyl]-methyl}-amino)-2-methyl-propionic acid] the figure was less than 100 nM.

Turning to `CCc1cc(C(=O)c2ccc(F)cc2)c(NC(=O)CC2(CC(=O)O)CCCC2)s1` [Example 21, (1-{[5-Ethyl-3-(4-fluoro-benzoyl)-thiophen-2-ylcarbamoyl]-methyl}-cyclopentyl)-acetic acid], the EC50 is 1000 to 30000 nM. On the same count and under the same terms, to `CCc1cc(C(=O)c2ccc(Br)cc2)c(NC(=O)CSCC(=O)O)s1` [Example 22, {[3-(4-Bromo-benzoyl)-5-ethyl-thiophen-2-ylcarbamoyl]-methylsulfanyl}-acetic acid] belongs less than 100 nM; to `CCc1ccc(C(=O)c2cc(CC)sc2NC(=O)CSCC(=O)O)cc1` [Example 9, {[5-Ethyl-3-(4-ethyl-benzoyl)-thiophen-2-ylcarbamoyl]-methylsulfanyl}-acetic acid], 100 to 1000 nM. Still for that read-out and setting: with `CCCc1cc(C(=O)c2ccc(OC)cc2)c(NC(=O)CSCC(=O)O)s1` [Example 63, {[3-(4-Methoxybenzoyl)-5-propyl-thiophen-2-ylcarbamoyl]-methylsulfanyl}-acetic acid] the figure was 1000 to 30000 nM; with `CCc1ccc(C(=O)c2cc(CC)sc2NC(=O)CSC(C)(C)C(=O)O)cc1` [Example 10, 2-{[5-Ethyl-3-(4-ethyl-benzoyl)-thiophen-2-ylcarbamoyl]-methylsulfanyl}-2-methyl-propionic acid], 100 to 1000 nM.

In turn, `CCc1cc(C(=O)c2cnc(OC(C)C)c(Cl)c2)c(NC(=O)CSCC(=O)O)s1` [Example 59, {[3-(5-Chloro-6-isopropoxy-pyridine-3-carbonyl)-5-ethyl-thiophen-2-ylcarbamoyl]-methylsulfanyl}-acetic acid] registered an EC50 of 100 to 1000 nM.

Staying with this experiment, now noted: luciferase reporter, Table 2.
The compound `CCc1cc(C(=O)c2ccc(OC(F)(F)F)cc2)c(NC(=O)CNC2(C(=O)O)CCCC2)s1` [Example 190, 1-({[5-Ethyl-3-(4-trifluoromethoxy-benzoyl)-thiophen-2-ylcarbamoyl]-methyl}-amino)-cyclopentanecarboxylic acid] displayed an EC50 of less than 100 nM. Still for that read-out and setting: with `CCc1cc(C(=O)c2cc3cc(Cl)ccc3n2C)c(NC(=O)CSCC(=O)O)s1` [Example 151, {[3-(5-Chloro-1-methyl-1H-indole-2-carbonyl)-5-ethyl-thiophen-2-ylcarbamoyl]-methylsulfanyl}-acetic acid] the figure was less than 100 nM; with `CCc1cc(C(=O)c2ccc(OC(F)(F)F)cc2)c(NC(=O)C(c2ccccc2)N2CCC[C@@H]2C(=O)O)s1` (stereo partly drawn) [Example 124, (R)-1-{[5-Ethyl-3-(4-trifluoromethoxy-benzoyl)-thiophen-2-ylcarbamoyl]-phenyl-methyl}-pyrrolidine-2-carboxylic acid], 100 to 1000 nM; with `CCc1cc(C(=O)c2ccc(OC(F)(F)F)cc2)c(NC(=O)CN2CC(C)CC2C(=O)O)s1` (mixture of isomers) [Example 180, 1-{[5-Ethyl-3-(4-trifluoromethoxy-benzoyl)-thiophen-2-ylcarbamoyl]-methyl}-4-methyl-pyrrolidine-2-carboxylic acid], 100 to 1000 nM. Same read-out and setting: with `CCc1cc(C(=O)c2ccc(OC(F)(F)F)cc2)c(NC(=O)C(C)N2CCC[C@@H]2C(=O)O)s1` (stereo partly drawn) [Example 123, (R)-1-{1-[5-Ethyl-3-(4-trifluoromethoxy-benzoyl)-thiophen-2-ylcarbamoyl]-ethyl}-pyrrolidine-2-carboxylic acid] the figure was less than 100 nM. With `CCc1cc(C(=O)c2ccc3cc(Cl)ccc3n2)c(NC(=O)CSCC(=O)O)s1` [Example 156, {[3-(6-Chloro-quinoline-2-carbonyl)-5-ethyl-thiophen-2-ylcarbamoyl]-methylsulfanyl}-acetic acid], the concentration giving a half-maximal response (EC50) lay in the range of 100 to 1000 nM.

`CCc1cc(C(=O)c2ccc(OC(F)(F)F)cc2)c(NC(=O)CN2CCCC(C(=O)O)C2)s1` (centres unmarked) [Example 159, 1-{[5-Ethyl-3-(4-trifluoromethoxy-benzoyl)-thiophen-2-ylcarbamoyl]-methyl}-piperidine-3-carboxylic acid] showed an EC50 of 100 to 1000 nM. Still for that read-out and setting: to `CCc1cc(C(=O)c2ccc(OC(F)(F)F)c(Cl)c2)c(NC(=O)CNC(C)(C)C(=O)O)s1` [Example 171, 2-({[3-(3-Chloro-4-trifluoromethoxy-benzoyl)-5-ethyl-thiophen-2-ylcarbamoyl]-methyl}-amino)-2-methyl-propionic acid] belongs less than 100 nM; to `CCc1cc(C(=O)c2ccc(OC(F)(F)F)cc2)c(NC(=O)CS[C@@H](C)C(=O)O)s1` [Example 129, (S)-2-{[5-Ethyl-3-(4-trifluoromethoxy-benzoyl)-thiophen-2-ylcarbamoyl]-methylsulfanyl}-propionic acid], less than 100 nM. The compound `CCc1cc(C(=O)c2ccc(OC(F)(F)F)cc2)c(NC(=O)C(C)(C)NCC(=O)O)s1` [Example 118, {1-[5-Ethyl-3-(4-trifluoromethoxy-benzoyl)-thiophen-2-ylcarbamoyl]-1-methyl-ethylamino}-acetic acid] displayed an EC50 of 100 to 1000 nM. Same read-out and setting: with `CCc1cc(C(=O)c2ccc(OC(F)(F)F)cc2)c(NC(=O)CN(C)C(C)(C)C(=O)O)s1` [Example 196, 2-({[5-Ethyl-3-(4-trifluoromethoxy-benzoyl)-thiophen-2-ylcarbamoyl]-methyl}-methyl-amino)-2-methyl-propionic acid] the figure was 1000 to 30000 nM; with `CCc1cc(C(=O)c2nc3ccccc3s2)c(NC(=O)CSCC(=O)O)s1` [Example 139, {[3-(Benzothiazole-2-carbonyl)-5-ethyl-thiophen-2-ylcarbamoyl]-methylsulfanyl}-acetic acid], 1000 to 30000 nM.
